Data on 13 compounds can be found in US12030878B2 (BRISTOL-MYERS SQUIBB COMPANY, priority 2017, dated 2024).

A word on the IC50: it is the concentration that inhibits the measured activity by half. A low value points to greater potency in that assay.

Assay type in all cases: cell-based
Test [1] has as its target T1, human TLR7 (Homo sapiens, UniProt Q9NYK1).
T1 construct: host or cells: HEK-Blue cells
T1 sequence (Q9NYK1 27-1049): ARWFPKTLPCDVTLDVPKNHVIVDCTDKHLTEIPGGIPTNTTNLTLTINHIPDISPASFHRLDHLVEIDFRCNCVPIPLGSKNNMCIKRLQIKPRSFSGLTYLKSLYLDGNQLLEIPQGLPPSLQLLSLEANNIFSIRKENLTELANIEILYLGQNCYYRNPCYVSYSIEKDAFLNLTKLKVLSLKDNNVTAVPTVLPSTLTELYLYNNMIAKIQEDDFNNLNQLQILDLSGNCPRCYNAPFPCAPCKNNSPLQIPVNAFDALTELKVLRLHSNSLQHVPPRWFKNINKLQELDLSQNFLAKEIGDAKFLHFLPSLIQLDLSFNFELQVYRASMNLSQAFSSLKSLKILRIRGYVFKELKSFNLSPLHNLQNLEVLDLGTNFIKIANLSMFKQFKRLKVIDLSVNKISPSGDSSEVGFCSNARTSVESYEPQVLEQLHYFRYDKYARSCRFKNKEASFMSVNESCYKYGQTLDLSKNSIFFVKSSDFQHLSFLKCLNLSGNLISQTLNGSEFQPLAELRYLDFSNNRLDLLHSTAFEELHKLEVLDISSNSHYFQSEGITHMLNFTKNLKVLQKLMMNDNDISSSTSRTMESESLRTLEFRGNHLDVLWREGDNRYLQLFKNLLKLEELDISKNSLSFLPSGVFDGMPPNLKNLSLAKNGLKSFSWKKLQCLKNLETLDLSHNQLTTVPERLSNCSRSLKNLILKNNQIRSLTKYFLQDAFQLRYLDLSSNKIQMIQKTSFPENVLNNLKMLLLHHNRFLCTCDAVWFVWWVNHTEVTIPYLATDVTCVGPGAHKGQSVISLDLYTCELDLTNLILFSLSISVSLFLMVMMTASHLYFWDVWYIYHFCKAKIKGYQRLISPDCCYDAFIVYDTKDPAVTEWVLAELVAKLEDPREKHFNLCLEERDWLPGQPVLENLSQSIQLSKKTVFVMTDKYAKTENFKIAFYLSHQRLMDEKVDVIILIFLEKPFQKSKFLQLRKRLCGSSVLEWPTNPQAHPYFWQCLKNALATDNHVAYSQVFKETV
Briefly: TLR7 inhibition reporter assay (HEK-Blue SEAP). The settings on record: HEK-Blue cells overexpressing human TLR7, stimulated with gardiquimod 7.5 μM, 22 hour incubation. Summed up: (§1)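 HEK-Blue cells with NF-κB/AP-1-driven SEAP reporter; compounds 0.05 nM-50 μM, 30 min pre-treatment at room temperature, then agonist: gardiquimod 7.5 μM (TLR7), R848 15.9 μM (TLR8) or ODN2006 5 nM (TLR9). SEAP read after 22 h at 37 °C; percent inhibition versus agonist-plus-DMSO and reference-inhibitor wells.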
On the technique in general: A reporter such as luciferase makes a cellular process visible.

Test [2] deals with T2, human TLR8 (Homo sapiens, UniProt Q9NR97).
T2 construct: host or cells: HEK-Blue cells
T2 sequence (Q9NR97 27-1041): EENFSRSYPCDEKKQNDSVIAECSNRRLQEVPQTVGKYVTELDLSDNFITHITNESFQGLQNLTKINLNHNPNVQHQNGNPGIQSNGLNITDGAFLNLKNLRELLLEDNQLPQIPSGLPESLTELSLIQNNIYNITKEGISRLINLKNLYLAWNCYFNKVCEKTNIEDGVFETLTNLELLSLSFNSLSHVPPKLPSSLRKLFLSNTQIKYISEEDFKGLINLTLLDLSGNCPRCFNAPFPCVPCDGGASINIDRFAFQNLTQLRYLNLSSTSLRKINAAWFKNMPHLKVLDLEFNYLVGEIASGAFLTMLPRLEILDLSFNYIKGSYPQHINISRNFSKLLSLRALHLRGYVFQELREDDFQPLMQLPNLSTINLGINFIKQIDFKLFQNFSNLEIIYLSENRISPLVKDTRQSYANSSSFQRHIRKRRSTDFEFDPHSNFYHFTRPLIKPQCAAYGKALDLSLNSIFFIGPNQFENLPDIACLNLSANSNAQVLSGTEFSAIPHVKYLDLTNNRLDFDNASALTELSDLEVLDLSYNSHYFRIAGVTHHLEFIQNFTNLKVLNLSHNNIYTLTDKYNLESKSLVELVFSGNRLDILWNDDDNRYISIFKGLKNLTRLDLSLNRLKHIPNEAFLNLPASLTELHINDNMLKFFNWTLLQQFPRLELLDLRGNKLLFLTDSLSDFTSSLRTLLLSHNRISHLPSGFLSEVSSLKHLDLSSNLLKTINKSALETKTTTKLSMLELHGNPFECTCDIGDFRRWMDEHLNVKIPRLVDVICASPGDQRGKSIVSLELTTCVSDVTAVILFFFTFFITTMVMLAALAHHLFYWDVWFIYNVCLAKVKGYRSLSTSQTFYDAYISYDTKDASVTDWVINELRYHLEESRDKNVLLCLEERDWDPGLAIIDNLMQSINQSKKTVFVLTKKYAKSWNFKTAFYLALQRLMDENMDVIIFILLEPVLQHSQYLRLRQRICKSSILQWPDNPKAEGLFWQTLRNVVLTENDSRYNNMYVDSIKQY
Kind of test: TLR8 inhibition reporter assay (HEK-Blue SEAP). The note with it: HEK-Blue cells overexpressing human TLR8, stimulated with R848 15.9 μM, 22 hour incubation. Put shortly: as §1

Test [3] addresses T3, human TLR9 (Homo sapiens, UniProt Q9NR96).
T3 construct: host or cells: HEK-Blue cells
T3 sequence (Q9NR96 26-1032): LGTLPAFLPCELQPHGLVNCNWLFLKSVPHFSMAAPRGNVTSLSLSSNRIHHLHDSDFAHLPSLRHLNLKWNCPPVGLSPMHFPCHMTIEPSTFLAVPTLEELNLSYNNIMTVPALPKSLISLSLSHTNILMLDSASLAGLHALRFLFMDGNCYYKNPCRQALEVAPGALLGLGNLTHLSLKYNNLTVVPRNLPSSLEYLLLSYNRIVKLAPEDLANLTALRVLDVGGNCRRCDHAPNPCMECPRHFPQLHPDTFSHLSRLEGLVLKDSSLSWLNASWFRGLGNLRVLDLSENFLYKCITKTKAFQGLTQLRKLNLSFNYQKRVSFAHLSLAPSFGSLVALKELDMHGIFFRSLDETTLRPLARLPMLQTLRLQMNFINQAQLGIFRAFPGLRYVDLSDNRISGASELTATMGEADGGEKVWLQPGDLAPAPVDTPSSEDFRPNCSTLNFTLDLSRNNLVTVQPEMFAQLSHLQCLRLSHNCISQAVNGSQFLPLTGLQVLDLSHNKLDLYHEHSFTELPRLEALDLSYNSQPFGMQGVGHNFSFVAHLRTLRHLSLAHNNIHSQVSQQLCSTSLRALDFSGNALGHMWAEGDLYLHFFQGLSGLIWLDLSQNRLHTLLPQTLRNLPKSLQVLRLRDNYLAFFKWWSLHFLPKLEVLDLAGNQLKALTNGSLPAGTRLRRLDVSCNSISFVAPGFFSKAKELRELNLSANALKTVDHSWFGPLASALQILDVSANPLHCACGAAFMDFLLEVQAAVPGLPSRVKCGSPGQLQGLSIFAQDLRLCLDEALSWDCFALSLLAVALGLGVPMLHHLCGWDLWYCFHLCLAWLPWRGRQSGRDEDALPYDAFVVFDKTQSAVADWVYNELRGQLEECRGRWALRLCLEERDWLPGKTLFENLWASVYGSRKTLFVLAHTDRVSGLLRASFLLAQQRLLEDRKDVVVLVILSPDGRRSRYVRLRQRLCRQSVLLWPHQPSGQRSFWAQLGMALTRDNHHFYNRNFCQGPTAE
Briefly: TLR9 inhibition reporter assay (HEK-Blue SEAP). The settings on record: HEK-Blue cells overexpressing human TLR9, stimulated with ODN2006 5 nM, 22 hour incubation. Put shortly:
as §1

On to `CNC(=O)CN1CCC(COc2ccc3[nH]c(-c4cc(C)c5ncnn5c4)c(C(C)C)c3c2)CC1` [Example 113, 2-(4-(((3-isopropyl-2-(8-methyl-[1,2,4]triazolo[1,5-a]pyridin-6-yl)-1H-indol-5-yl)oxy)methyl)piperidin-1-yl)-N-methylacetamide], for which the results for the IC50 in test [1], in test [2] and in test [3] were 0.0014 µM, 0.0076 µM and 6.69 µM, respectively.

As for `CNC(=O)CN1CCC(Oc2ccc3[nH]c(-c4cc(C)c5ncnn5c4)c(C(C)C)c3c2)CC1` [Example 114, 2-(4-((3-isopropyl-2-(8-methyl-[1,2,4]triazolo[1,5-a]pyridin-6-yl)-1H-indol-5-yl)oxy)piperidin-1-yl)-N-methylacetamide], the IC50 in test [1] came out at 0.001 µM; in test [2] it was 0.0051 µM; in test [3], 31.6 µM.

On to `CNC(=O)CN1CCC(COc2ccc3[nH]c(-c4cn(C)c(=O)c(C)c4C)c(C(C)C)c3c2)CC1` [Example 116, 2-(4-(((3-isopropyl-2-(1,4,5-trimethyl-6-oxo-1,6-dihydropyridin-3-yl)-1H-indol-5-yl)oxy)methyl)piperidin-1-yl)-N-methylacetamide], for which the 50% inhibitory concentration (IC50) in test [1] is 0.0161 µM; in test [2], 0.0053 µM; in test [3], 17 µM.

Regarding `COc1ccc(-c2[nH]c3ccc(OCC(=O)NCCN)cc3c2C(C)C)cc1OC` [Example 117, N-(2-aminoethyl)-2-((2-(3,4-dimethoxyphenyl)-3-isopropyl-1H-indol-5-yl)oxy)acetamide], the values for the 50% inhibitory concentration (IC50) in test [1], in test [2] and in test [3] were 0.12 µM, 0.0361 µM and 1.57 µM, respectively.

Regarding `CCc1c(-c2ccc(OC)c(OC)c2)[nH]c2ccc(OC3CCN(C4CCN(CC(C)C)CC4)CC3)cc12` [Example 118, 2-(3,4-dimethoxyphenyl)-3-ethyl-5-((1′-isobutyl-[1,4′-bipiperidin]-4-yl)oxy)-1H-indole], the IC50 amounted to 0.38 µM in test [1], 0.009 µM in test [2] and 0.309 µM in test [3].

For `COc1ccc(-c2[nH]c3ccc(OCC(=O)NC[C@H]4CCNC4)cc3c2C(C)C)cc1OC` [Example 119, (S)-2-((2-(3,4-dimethoxyphenyl)-3-isopropyl-1H-indol-5-yl)oxy)-N-(pyrrolidin-3-ylmethyl)acetamide], the half-maximal inhibitory concentration (IC50) in test [1] was 0.109 µM; in test [2] it was 0.177 µM; in test [3], 2.7 µM.

Turning to `COc1ccc(-c2[nH]c3ccc(OCC(=O)N4CCC[C@H](N)C4)cc3c2C(C)C)cc1OC` [Example 120, (S)-1-(3-aminopiperidin-1-yl)-2-((2-(3,4-dimethoxyphenyl)-3-isopropyl-1H-indol-5-yl)oxy)ethan-1-one], the IC50 worked out at 0.0955 µM in test [1], 0.0469 µM in test [2] and 2.66 µM in test [3].

For the compound `COc1ccc(-c2[nH]c3ccc(OCC(=O)N(C)C4CN5CCC4CC5)cc3c2C(C)C)cc1OC` (stereo not drawn) [Example 121, 2-((2-(3,4-dimethoxyphenyl)-3-isopropyl-1H-indol-5-yl)oxy)-N-methyl-N-((1s,4s)-quinuclidin-3-yl)acetamide], the IC50 in test [1] was 0.0268 µM; in test [2], 0.0577 µM; in test [3], 3.55 µM.

`COc1ccc(-c2[nH]c3ccc(OCC(=O)N4CCCC(CCN)C4)cc3c2C(C)C)cc1OC` (stereo not drawn) [Example 122, 1-(3-(2-aminoethyl)piperidin-1-yl)-2-((2-(3,4-dimethoxyphenyl)-3-isopropyl-1H-indol-5-yl)oxy)ethan-1-one]: the IC50 was found to be 0.328 µM in test [1], 0.113 µM in test [2] and 1.01 µM in test [3].

`COc1ccc(-c2[nH]c3ccc(OCC(=O)N4CCC[C@]5(CCCC[C@@H]5N)C4)cc3c2C(C)C)cc1OC` [Example 123, 1-((6R,7S)-7-amino-2-azaspiro[5.5]undecan-2-yl)-2-((2-(3,4-dimethoxyphenyl)-3-isopropyl-1H-indol-5-yl)oxy)ethan-1-one]: the half-maximal inhibitory concentration (IC50) in test [1] is 0.164 µM; in test [2], 0.227 µM; in test [3] it was 2.31 µM.

For `COc1ccc(-c2[nH]c3ccc(OCC(=O)NC4CC[C@H]5CC[C@@H]4N5C)cc3c2C(C)C)cc1OC` (stereo partly drawn) [Example 124, 2-((2-(3,4-dimethoxyphenyl)-3-isopropyl-1H-indol-5-yl)oxy)-N-((5S)-8-methyl-8-azabicyclo[3.2.1]octan-2-yl)acetamide], the half-maximal inhibitory concentration (IC50) in test [1] was 0.227 µM; in test [2], 0.0512 µM; in test [3], 4.03 µM.

For the compound `COc1ccc(-c2[nH]c3ccc(OCC(=O)NC4CN5CCC4CC5)cc3c2C(C)C)cc1OC` (stereo not drawn) [Example 125, 2-((2-(3,4-dimethoxyphenyl)-3-isopropyl-1H-indol-5-yl)oxy)-N-((1s,4s)-quinuclidin-3-yl)acetamide], the IC50 in test [1] is 0.019 µM; in test [2], 0.0444 µM; in test [3], 6.33 µM.

`COc1ccc(-c2[nH]c3ccc(OCC(=O)NCC4CCCCN4)cc3c2C(C)C)cc1OC` (stereo not drawn) [Example 126, 2-((2-(3,4-dimethoxyphenyl)-3-isopropyl-1H-indol-5-yl)oxy)-N-(piperidin-2-ylmethyl)acetamide]: the IC50 was determined as 0.111 µM in test [1], 0.0128 µM in test [2] and 1.9 µM in test [3].
